From US20090227562A1, “Combination of a Selective Noradrenaline Reuptake Unhibitor and a PDEV Inhibitor” (Pfizer Inc., priority 2004, published 2009)

Experiments:
serotonin reuptake = conditions: cited from earlier work
dopamine reuptake = conditions: cited from earlier work
[1] = test system: static allodynia in the CCI rat model; experiment: Static allodynia (von Frey hairs) in the chronic constriction injury (CCI) rat model of neuropathic pain; format: in vivo; conditions: CCI rats; for paw withdrawal threshold (PWT), reversal compared to the vehicle treated group: single administration, peak effect 1 h post administration, median [LQ;UQ], 6 rats per group, CCI baseline 2 g; for anti-allodynic effect following single administration: static allodynia, (S,S)-reboxetine 1-3-10-30 mg/kg IP, Compound A 3-10-30 mg/kg SC
Experimental: Male Sprague Dawley rats (175-200 g at time of surgery), obtained from Charles River, Margate, U.K.) were housed in groups of 3-6. All animals were kept under a 12 h light/dark cycle (lights on at 07 h 00 min) with food and water ad libitum. All experiments were carried out by an observer blind to drug treatments. Animals were placed in an anaesthetic chamber and anaesthetised with a 2% isofluorane O2 mixture. The right hind thigh is shaved and swabbed with 1% iodine. Animals were then transferred to a homeothermic blanket for the duration of the procedure and anaesthesia maintained during surgery via a nose cone. The skin was cut along the line of the thigh bone. The common sciatic nerve was exposed at the middle of the thigh by blunt dissection through biceps femoris. Proximal to the sciatic trifurcation, about 7 mm of nerve was freed by inserting forceps under the nerve and the nerve gently lifted out of the thigh. The forceps were gently opened and closed several times to aid clearance of the fascia from the nerve. Suture was pulled under the nerve using forceps and tied in a simple knot until slight resistance was felt and then double knotted. The procedure was repeated until 4 ligatures (4-0 silk) were tied loosely around the nerve with approx 1 mm spacing. The incision was closed in layers and the wound treated with topical antibiotics. Animals were habituated to test cages prior to the assessment of allodynia. Static allodynia was evaluated by application of von Frey hairs (Stoelting, Wood Dale, Ill., USA) in ascending order of force (0.7, 1.2, 1.4, 2, 4, 6, 8, 10, 15 and 26 grams) to the plantar surface of hind paws. […] Once a withdrawal response to a von Frey hair was established, the paw was re-tested, starting with the filament below the one that produced a withdrawal, and subsequently with the remaining filaments in descending force sequence until no withdrawal occurred. The highest force of 26 g lifted the paw as well as eliciting a response, thus represented the cut off point. Each animal had both hind paws tested in this manner. The lowest amount of force required to elicit a response was recorded as paw withdrawal threshold (PWT) in grams. Static allodynia was defined as present if animals responded to a stimulus of, or less than, 4 g, which is innocuous in normal rats. […] Static allodynia was graphically represented as median [LQ;UQ] in a logarithmic scale and data analysed by Kruskall-Wallis test for non-parametric results, followed by Mann-Whitney's U test vs vehicle group for each time point, using Prism Software version 3 (GraphPad, San Diego, USA). […] Data are the peak effects (1 h post administration) for each compound and doses expressed as median [LQ; […] In this specific case it corresponds to the Compound A dose-response line.

norepinephrine reuptake = conditions: as disclosed in WO-A-01/01973; cited from earlier work

Compound	serotonin reuptake inhibition (serotonin reuptake)	dopamine reuptake inhibition (dopamine reuptake)	paw withdrawal threshold (PWT), reversal compared to the vehicle treated group ([1]; 30 mg/kg IP (free base)) [g]	anti-allodynic effect following single administration [1]	selectivity for the inhibition of norepinephrine reuptake over the inhibition of serotonin reuptake (norepinephrine reuptake)	paw withdrawal threshold (PWT), reversal compared to the vehicle treated group ([1]; 30 mg/kg SC) [g]
CCOc1ccccc1OC(c1ccccc1)C1CNCCO1 (racemic) [Reboxetine, (R,R/S,S)-(2-[(2-ethoxyphenoxy)(phenyl)methyl]morpholine)]	only marginal serotonin reuptake inhibition	no dopamine reuptake inhibition	–	–	–	–
CCOc1ccccc1O[C@@H](c1ccccc1)[C@@H]1CNCCO1 [(S,S)-reboxetine]	–	–	6	dose dependent anti-allodynic effect	greatly enhanced selectivity	–
CCCOc1ccc(S(=O)(=O)N2CCN(CC)CC2)cc1-c1nc2c(CC)n(Cc3ccccn3)nc2c(=O)[nH]1 [Compound A, 3-ethyl-5-[5-(4-ethylpiperazin-1-ylsulphonyl)-2-n-propoxyphenyl]-2-(pyridin-2-yl)methyl-2,6-dihydro-7H-pyrazolo[4,3-d]pyrimidin-7-one]	–	–	–	dose dependent anti-allodynic effect	–	6
